Measured values as given in patent US11535632B2, “Solid forms of an S1P-receptor modulator” (ESCAPE Bio, Inc., priority 2019, dated 2022).
Entries after “also recorded” stand apart in the source; their conditions may differ.

Assays:
Assay type in all cases: physicochemical
[1] = Room temperature equilibrium solubility in aqueous suspensions; settings: listed as Compound 1, Form B; for Total drug in solution: room temperature equilibrium, HPLC of supernatant
[2] = Hygroscopicity evaluation by DVS at 25° C.
Protocol: Hygroscopicity of Compound 1, Form A and Compound 1, Form B was evaluated by DVS at 25° C.

[3] = Solid state stability study
From the text: The two lots of Compound 1 were characterized by HPLC, PLM, XRPD, DSC, TGA, and KF. […] According to the stability study at different conditions, the two forms of compound were practically stable at different humidity for at least 4 weeks, with no XRPD pattern change and no growth of impurities were found.

[4] = Storage for one week at controlled temperature/humidity, XRPD
Protocol: PLM images obtained of the particles show them to be a mixture of laths and larger aggregates typical of an uncontrolled antisolvent crystallization. A peak corresponding to 0.16 molar equivalents of acetic acid is present in the ^1H-NMR spectrum. […] It is evident from the corresponding DSC thermogram that this mass loss coincides with melting of the material (endotherm at 237.7° C.).

[5] = Competitive slurries of Form B and C in process relevant solvents
Protocol: Determination of the relative stabilities of Form B and Form C was undertaken to identify which material was more thermodynamically stable in process relevant solvents. As a suspected solvate was isolated from experiments where DMAC was used as a solvent, only DMSO and acetic acid were determined to be appropriate process solvents. Combinations of these solvents with relevant antisolvents were therefore selected for the competitive slurry experiments.
Compound 1 (from Example 2) was dispensed into HPLC vials. To these, 1 ml of selected solvents was subsequently added to give a suspension. Materials were slurried for 72 hours at 90° C., 50° C. or 25° C. with 500 rpm stirring. Material was subsequently isolated by centrifugation and analyzed by XRPD.

Water activity study = test: Water activity study
Protocol: About 15 mg of Form A and 15 mg of Form B were added to the saturated solutions of different water activities and equilibrated at 25° C. and 50° C. for 4 days, respectively. The resulting suspensions were filtered, and the solid parts (wet cake) were investigated by XRPD to determine the polymorph.
According to XRPD results, Form B was obtained in methanol/water with water activity (a.w.) ranging from 0.1 to 0.9 at 25° C., as shown in FIGS. 20A-20B. At 50° C., Form B was obtained in methanol/water with a.w. ≥0.2, whereas a mixture of Form A and Form B was obtained in a.w. […] The water activity of the binary solvent system was calculated based on UNIFAC method (UNIQUAC Functional-group Activity Coefficients).

[6] = Variable temperature XRPD; settings: heated in situ to 150° C. at 10° C./min; new form denoted Form E
Protocol: For variable temperature (VT-XRPD) experiments the samples were prepared and analysed in an Anton Paar chromed sample holder with silicon wafer insert. A heating/cooling rate of 10° C./min was used with a 2 min isothermal hold before the measurement started. The measurement parameters are as per the standard screening data collection method (detailed above). Measurements were taken at the following temperatures: 25° C., 150° C. and 25° C.
Compound 1 Form B was analyzed using the Empyrean XRPD at a temperature of 25° C. The sample was then heated in situ using the variable temperature stage to 150° C. at a ramp rate of 10° C./min and held isothermally for 2 minutes whereupon a second XRPD measurement was made. The sample was then cooled to 25° C. at a ramp rate of 10° C./min held isothermally for 2 minutes whereupon a third XRPD measurement was made.

Which “Total drug in solution” value ([1]; 0.2% HPMC aqueous suspension) does the source give for O=C(O)[C@H]1C[C@@H](N2CCc3oc(-c4ccc(OCc5ccc(Cl)cc5)cc4)nc3C2)C1 [Form B, (1s,3s)-3-(2-(4-((4-chlorobenzyl)oxy)phenyl)-6,7-dihydrooxazolo[4,5-c]pyridin-5(4H)-yl)cyclobutane-1-carboxylic acid] here?
The value was under 1 µg/mL.

And the pH ([1]; 0.2% HPMC aqueous suspension)?
The pH was 6.7.

And the “Total drug in solution” value ([1]; 0.25% SLS aqueous suspension)?
Its value is 7.8 µg/mL.

What about the pH ([1]; 0.25% SLS aqueous suspension) of the same compound?
Its pH is 6.0.

And the “Total drug in solution” value ([1]; 20% HP-BCD aqueous suspension)?
Its value is 74.2 µg/mL.

And the pH ([1]; 20% HP-BCD aqueous suspension)?
Its pH is 6.1.

And the “DVS Desorp. (%)” value ([2]; 0% RH, 1st Desorp.)?
The value was 0.01%.

What about the “DVS Sorp. (%)” value ([2]; 0% RH, 2nd Sorp.) of the same compound?
Its value is 0.01%.

What about the “DVS Desorp. (%)” value ([2]; 10% RH, 1st Desorp.) of the same compound?
Its value is 0.95%.

And the “DVS Sorp. (%)” value ([2]; 10% RH, 2nd Sorp.)?
The value was 0.65%.

What about the “DVS Desorp. (%)” value ([2]; 20% RH, 1st Desorp.) of the same compound?
Its value is 1.03%.

What about the “DVS Sorp. (%)” value ([2]; 20% RH, 2nd Sorp.) of the same compound?
The value was 0.96%.

And the “DVS Desorp. (%)” value ([2]; 30% RH, 1st Desorp.)?
Its value is 1.08%.

What about the “DVS Sorp. (%)” value ([2]; 30% RH, 2nd Sorp.) of the same compound?
The value was 1.00%.

And the “DVS Desorp. (%)” value ([2]; 40% RH, 1st Desorp.)?
Its value is 1.14%.

What about the “DVS Sorp. (%)” value ([2]; 40% RH, 1st Sorp.) of the same compound?
Its value is 1.09%.

And the “DVS Desorp. (%)” value ([2]; 40% RH, 2nd Desorp.)?
Its value is 1.06%.

And the “DVS Sorp. (%)” value ([2]; 40% RH, 2nd Sorp.)?
Its value is 1.03%.

And the “DVS Desorp. (%)” value ([2]; 50% RH, 1st Desorp.)?
Its value is 1.18%.

And the “DVS Sorp. (%)” value ([2]; 50% RH, 1st Sorp.)?
The value was 1.10%.

And the “DVS Desorp. (%)” value ([2]; 50% RH, 2nd Desorp.)?
The value was 1.11%.

What about the “DVS Sorp. (%)” value ([2]; 50% RH, 2nd Sorp.) of the same compound?
Its value is 1.06%.

And the “DVS Desorp. (%)” value ([2]; 60% RH, 1st Desorp.)?
The value was 1.21%.

What about the “DVS Sorp. (%)” value ([2]; 60% RH, 1st Sorp.) of the same compound?
Its value is 1.14%.

And the “DVS Desorp. (%)” value ([2]; 60% RH, 2nd Desorp.)?
Its value is 1.10%.

What about the “DVS Sorp. (%)” value ([2]; 60% RH, 2nd Sorp.) of the same compound?
Its value is 1.09%.

And the “DVS Desorp. (%)” value ([2]; 70% RH, 1st Desorp.)?
The value was 1.26%.

And the “DVS Sorp. (%)” value ([2]; 70% RH, 1st Sorp.)?
Its value is 1.18%.

What about the “DVS Desorp. (%)” value ([2]; 70% RH, 2nd Desorp.) of the same compound?
Its value is 1.13%.

What about the “DVS Sorp. (%)” value ([2]; 70% RH, 2nd Sorp.) of the same compound?
Its value is 1.12%.

And the “DVS Desorp. (%)” value ([2]; 80% RH, 1st Desorp.)?
The value was 1.28%.

What about the “DVS Sorp. (%)” value ([2]; 80% RH, 1st Sorp.) of the same compound?
Its value is 1.22%.

And the “DVS Desorp. (%)” value ([2]; 80% RH, 2nd Desorp.)?
Its value is 1.18%.

What about the “DVS Sorp. (%)” value ([2]; 80% RH, 2nd Sorp.) of the same compound?
The value was 1.17%.

And the “DVS Desorp. (%)” value ([2]; 90% RH, 1st Desorp.)?
The value was 1.33%.

And the “DVS Sorp. (%)” value ([2]; 90% RH, 1st Sorp.)?
The value was 1.29%.

And the “DVS Desorp. (%)” value ([2]; 90% RH, 2nd Desorp.)?
Its value is 1.24%.

And the “DVS Sorp. (%)” value ([2]; 90% RH, 2nd Sorp.)?
The value was 1.22%.

And the “DVS Desorp. (%)” value ([2]; 95% RH, 1st Desorp.)?
Its value is 1.38%.

What about the “DVS Sorp. (%)” value ([2]; 95% RH, 1st Sorp.) of the same compound?
Its value is 1.38%.

What about the “DVS Desorp. (%)” value ([2]; 95% RH, 2nd Desorp.) of the same compound?
Its value is 1.30%.

What about the “DVS Sorp. (%)” value ([2]; 95% RH, 2nd Sorp.) of the same compound?
Its value is 1.30%.

And the “Hygroscopicity based on DVS results” value ([2]; listed as Compound 1, Form B)?
Its value is “slightly hygroscopic”.

What about the “XRPD after DVS test” value ([2]; listed as Compound 1, Form B) of the same compound?
Its value is “no form change”.

What about the “Crystallinity (XRPD & PLM)” value ([3]; 4 weeks, 25° C./60% RH) of the same compound?
Its value is “Crystalline”.

And the Purity ([3]; 4 weeks, 25° C./60% RH)?
Its Purity is 99.55%.

And the “Weight loss (TGA) (~120° C.)” value ([3]; 4 weeks, 25° C./60% RH)?
The value was 2.374%.

What about the “Crystallinity (XRPD & PLM)” value ([3]; 4 weeks, 40° C./75% RH) of the same compound?
The value was “Crystalline”.

And the Purity ([3]; 4 weeks, 40° C./75% RH)?
The Purity was 99.55%.

What about the “Weight loss (TGA) (~120° C.)” value ([3]; 4 weeks, 40° C./75% RH) of the same compound?
Its value is 2.319%.

What about the “Crystallinity (XRPD & PLM)” value ([3]; 6 weeks, 25° C./60% RH) of the same compound?
The value was “Crystalline”.

What about the Purity ([3]; 6 weeks, 25° C./60% RH) of the same compound?
Its Purity is 99.54%.

What about the Water content ([3]; 6 weeks, 25° C./60% RH) of the same compound?
The Water content was 3.361%.

And the “Weight loss (TGA) (~120° C.)” value ([3]; 6 weeks, 25° C./60% RH)?
The value was 2.364%.

And the “Crystallinity (XRPD & PLM)” value ([3]; 6 weeks, 40° C./75% RH)?
The value was “Crystalline”.

What about the Purity ([3]; 6 weeks, 40° C./75% RH) of the same compound?
Its Purity is 99.53%.

And the Water content ([3]; 6 weeks, 40° C./75% RH)?
Its Water content is 3.301%.

And the “Weight loss (TGA) (~120° C.)” value ([3]; 6 weeks, 40° C./75% RH)?
Its value is 2.276%.

And the “Crystallinity (XRPD & PLM)” value ([3]; 8 weeks, 25° C./60% RH)?
The value was “Crystalline”.

What about the Purity ([3]; 8 weeks, 25° C./60% RH) of the same compound?
The Purity was 99.54%.

What about the Water content ([3]; 8 weeks, 25° C./60% RH) of the same compound?
The Water content was 3.830%.

And the “Weight loss (TGA) (~120° C.)” value ([3]; 8 weeks, 25° C./60% RH)?
Its value is 2.943%.

What about the “Crystallinity (XRPD & PLM)” value ([3]; 8 weeks, 40° C./75% RH) of the same compound?
Its value is “Crystalline”.

What about the Purity ([3]; 8 weeks, 40° C./75% RH) of the same compound?
The Purity was 99.55%.

And the Water content ([3]; 8 weeks, 40° C./75% RH)?
The Water content was 3.494%.

And the “Weight loss (TGA) (~120° C.)” value ([3]; 8 weeks, 40° C./75% RH)?
The value was 3.809%.

And the “Crystallinity (XRPD & PLM)” value ([3]; Initial)?
Its value is “Crystalline”.

What about the Purity ([3]; Initial) of the same compound?
Its Purity is 99.54%.

And the Water content ([3]; Initial)?
The Water content was 3.677%.

What about the “Weight loss (TGA) (~120° C.)” value ([3]; Initial) of the same compound?
The value was 2.233%.

And the XRPD after storage ([4]; 25° C./97% RH for one week)?
The XRPD after storage was “did not result in changes to material as measured by XRPD; also recorded: Unchanged by XRPD”.

And the XRPD after storage ([4]; 40° C./75% RH for one week)?
Its XRPD after storage is “did not result in changes to material as measured by XRPD; also recorded: Unchanged by XRPD”.

What about the Relative thermodynamic stability ([5]; acetic acid mixtures and temperatures investigated) of the same compound?
Its Relative thermodynamic stability is “more thermodynamically stable than Form C”.

And the Relative thermodynamic stability ([5]; majority of experimental conditions assessed)?
The Relative thermodynamic stability was “more thermodynamically stable than Form C”.

What about the “critical water activity between Form A and Form B” value (Water activity study; 25° C., methanol/water) of the same compound?
Its value is “less than 0.1”.

What about the “Relative stability of forms” value (Water activity study; ambient condition) of the same compound?
The value was “more stable than Form A”.

What about the XRPD after heating [6] of the same compound?
The XRPD after heating was “change in Form by XRPD”.
